# Measured values: ChEMBL document CHEMBL4312023, “Design of novel monoamine oxidase-B inhibitors based on piperine scaffold: Structure-activity-toxicity, drug-likeness and efflux transport studies” (Eur J Med Chem, 2020)
# pIC50, pKi: −log10 of the molar value. The source made the active and inactive calls. No cut-off for these calls is given here.
# Experiments:
# [1] = species on record: Homo sapiens; assay: Selectivity index, ratio of IC50 for human microsomal MAO-A expressed in baculovirus infected […] cells to IC50 for human microsomal MAO-B expressed in baculovirus infected […] cells using kynuramine as substrate
# [2] = Retention time of compound at pH 7.4 by LC-UV analysis; type: physicochemical; settings: buffer
# [3] = biological target: T1, Amine oxidase [flavin-containing] B (Homo sapiens, UniProt P27338); assay: biochemical; type: cell-based, BTI-TN-5B1-4
# T1 sequence (P27338 whole entry): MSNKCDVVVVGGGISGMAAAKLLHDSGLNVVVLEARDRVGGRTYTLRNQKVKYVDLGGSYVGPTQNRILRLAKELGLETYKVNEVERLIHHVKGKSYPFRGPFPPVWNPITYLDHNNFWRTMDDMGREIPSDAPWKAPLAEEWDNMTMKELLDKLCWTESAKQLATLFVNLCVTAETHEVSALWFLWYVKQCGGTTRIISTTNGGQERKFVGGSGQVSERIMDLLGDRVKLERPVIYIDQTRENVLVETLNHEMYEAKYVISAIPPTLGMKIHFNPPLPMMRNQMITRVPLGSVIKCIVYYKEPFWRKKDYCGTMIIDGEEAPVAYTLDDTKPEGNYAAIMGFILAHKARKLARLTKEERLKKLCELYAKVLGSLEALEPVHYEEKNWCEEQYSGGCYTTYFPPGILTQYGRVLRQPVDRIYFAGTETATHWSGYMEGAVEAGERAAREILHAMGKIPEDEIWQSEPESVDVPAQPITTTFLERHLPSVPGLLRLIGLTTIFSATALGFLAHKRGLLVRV
# Description: Inhibition of human microsomal MAO-B expressed in baculovirus infected BTI-TN-5B1-4 cells assessed as reduction in 4-hydroxyquinoline formation using kynuramine as substrate preincubated with substrate for 10 mins followed by enzyme addition by spectrophotometric analysis
# [4] = biological target: T2, ATP-dependent translocase ABCB1 (Homo sapiens, UniProt P08183); assay: (§1) Induction of P-gp in human Caco2 cells assessed as decrease in Rho123 intracellular accumulation by measuring increase in ratio between fluorescence intensity of Zos-inhibited Rho123 accumulation and fluorescence intensity of non-inhibited Rho123 accumulation at 10 uM using Rho123 as substrate preincubated for 30 mins in presence of 5 uM P-gp inhibitor, Zos followed by incubation with Rhodamine 123 for 90 mins by fluorescence spectroscopy analysis; type: cell-based; settings: 1.5 h
# [5] = system: SH-SY5Y; assay: (§2) Cytotoxicity against human SH-SY5Y cells assessed as cellular metabolic activity by measuring resazurin reduction at 10 to 50 uM incubated for 24 hrs followed by incubation with resazurin for 2 hrs by fluorescence based assay (reference value: >85%); type: ADME, cell-based; settings: sh-sy5y, 24 h, 50 µM
# [6] = biological target: T3, Amine oxidase [flavin-containing] A (Homo sapiens, UniProt P21397); settings: BTI-TN-5B1-4, human, read-out: INH
# T3 sequence (P21397 whole entry): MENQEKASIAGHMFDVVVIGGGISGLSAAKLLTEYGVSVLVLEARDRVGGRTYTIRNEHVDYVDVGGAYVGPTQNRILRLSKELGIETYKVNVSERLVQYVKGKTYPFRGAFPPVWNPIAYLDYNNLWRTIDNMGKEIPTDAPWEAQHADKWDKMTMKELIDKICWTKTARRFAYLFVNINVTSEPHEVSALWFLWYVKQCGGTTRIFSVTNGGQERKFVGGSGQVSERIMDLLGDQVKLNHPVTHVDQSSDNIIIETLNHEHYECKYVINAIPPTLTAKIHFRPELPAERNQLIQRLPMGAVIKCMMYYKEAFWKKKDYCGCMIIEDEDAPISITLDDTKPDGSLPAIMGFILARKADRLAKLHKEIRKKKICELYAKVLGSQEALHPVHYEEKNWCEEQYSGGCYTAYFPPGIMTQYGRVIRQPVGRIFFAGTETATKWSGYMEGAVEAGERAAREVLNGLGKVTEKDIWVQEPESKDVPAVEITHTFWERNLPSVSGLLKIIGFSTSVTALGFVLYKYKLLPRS
# Description: Inhibition of human microsomal MAO-A expressed in baculovirus infected BTI-TN-5B1-4 cells assessed as reduction in 4-hydroxyquinoline formation at 10 uM using kynuramine as substrate preincubated with substrate for 10 mins followed by enzyme inhibition by spectrophotometric analysis
# [7] = biological target: T2, ATP-dependent translocase ABCB1; assay: as §1, with “Inhibition” for “Induction”, “efflux” for “intracellular accumulation”, “decrease” for “increase”; type: cell-based; settings: 1.5 h
# [8] = system: SH-SY5Y; assay: (§3) Cytotoxicity against human SH-SY5Y cells assessed as lysosomal activity by measuring neutral red uptake at 10 to 50 uM incubated for 24 hrs followed by incubation with neutral red solution for 2 hrs by microplate reader analysis (reference value: >85%); type: cell-based; settings: sh-sy5y, 24 h, 50 µM
# [9] = Chromatographic hydrophobicity index, log D of compound at 250 uM at pH 7.4 by HPLC analysis; type: physicochemical; settings: buffer
# [10] = Chromatographic hydrophobicity index of compound at 250 uM at pH 7.4 by HPLC analysis; type: ADME; settings: pH 7.4, 250 µM
# [11] = Cytotoxicity against human SH-SY5Y cells assessed as cellular metabolic activity by measuring resazurin reduction at 50 uM incubated for 24 hrs followed by incubation with resazurin for 2 hrs by fluorescence based assay (reference value: >85 %); type: ADME, cell-based; settings: read-out: Activity
# [12] = Cytotoxicity against human SH-SY5Y cells assessed as lysosomal activity by measuring neutral red uptake at 50 uM incubated for 24 hrs followed by incubation with neutral red solution for 2 hrs by microplate reader analysis (reference value: >85%); type: cell-based; settings: read-out: Activity
# [13] = Solubility of compound in sodium phosphate buffer at >10 uM at pH 7.4; type: physicochemical
# [14] = biological target: T1, Amine oxidase [flavin-containing] B; assay: Competitive inhibition of human microsomal MAO-B expressed in baculovirus infected BTI-TN-5B1-4 cells assessed as constant Vmax using kynuramine as substrate preincubated with substrate at varying concentrations for 10 mins followed by enzyme addition by Lineweaver-Burk plot analysis
# [15] = Cytotoxicity against human Caco2 cells assessed as cellular metabolic activity by measuring resazurin reduction at 10 to 50 uM incubated for 24 hrs followed by incubation with resazurin for 1 hr by fluorescence based assay (reference value: >85%); type: ADME, cell-based; settings: Caco-2 cells, read-out: Activity
# [16] = Cytotoxicity against human Caco2 cells assessed as lysosomal activity by measuring neutral red uptake at 10 to 50 uM incubated for 24 hrs followed by incubation with neutral red solution for 1 hr by microplate reader analysis (reference value: >85%); type: cell-based; settings: Caco-2 cells, read-out: Activity
# [17] = biological target: T1, Amine oxidase [flavin-containing] B; assay: Competitive inhibition of human microsomal MAO-B expressed in baculovirus infected BTI-TN-5B1-4 cells assessed as inhibition constant using kynuramine as substrate preincubated with substrate at varying concentrations for 10 mins followed by enzyme addition by Lineweaver-Burk plot analysis
# [18] = as §2; type: ADME, cell-based; settings: SH-SY5Y cells, read-out: Activity
# [19] = Stability of compound in DMSO-d6 and D2O (7:3) measured after 30 mins to 1 hr in presence of glutathione by thiol trapping assay based 1H-NMR analysis; type: physicochemical
# [20] = as §3; type: cell-based; settings: SH-SY5Y cells, read-out: Activity
# [21] = biological target: T1, Amine oxidase [flavin-containing] B; assay: Competitive inhibition of human microsomal MAO-B expressed in baculovirus infected BTI-TN-5B1-4 cells assessed as increase in substrate Km using kynuramine as substrate preincubated with substrate at varying concentrations for 10 mins followed by enzyme addition by Lineweaver-Burk plot analysis
# [22] = biological target: T1, Amine oxidase [flavin-containing] B; assay: Reversible inhibition of human microsomal MAO-B expressed in baculovirus infected BTI-TN-5B1-4 cells assessed as 4-hydroxyquinoline formation using kynuramine as substrate incubated up to 140 mins by spectrophotometric analysis; settings: bti-tn-5b1-4, 140 min
# [23] = biological target: T1, Amine oxidase [flavin-containing] B; assay: Inhibition of human microsomal MAO-B expressed in baculovirus infected BTI-TN-5B1-4 cells assessed as reduction in 4-hydroxyquinoline formation at 10 uM using kynuramine as substrate preincubated with substrate for 10 mins followed by enzyme addition by spectrophotometric analysis; settings: BTI-TN-5B1-4, human
# [24] = system: SH-SY5Y; assay: Induction of intracellular oxidative stress in human SH-SY5Y cells assessed as increase in reactive species level at 10 to 50 uM pretreated with DCFH-DA for 1.5 hrs followed by incubation with compound for 24 hrs by DCFH-DA dye based fluorescence assay relative to control; type: cell-based
# [25] = system: Caco-2; assay: Effect on P-gp protein expression in human Caco-2 cells at 10 uM incubated for 30 mins; type: functional, cell-based
# [26] = biological target: T3, Amine oxidase [flavin-containing] A; assay: biochemical
# Description: Inhibition of human microsomal MAO-A expressed in baculovirus infected BTI-TN-5B1-4 cells assessed as reduction in 4-hydroxyquinoline formation using kynuramine as substrate preincubated with substrate for 10 mins followed by enzyme addition by spectrophotometric analysis
# T2 sequence (P08183 whole entry): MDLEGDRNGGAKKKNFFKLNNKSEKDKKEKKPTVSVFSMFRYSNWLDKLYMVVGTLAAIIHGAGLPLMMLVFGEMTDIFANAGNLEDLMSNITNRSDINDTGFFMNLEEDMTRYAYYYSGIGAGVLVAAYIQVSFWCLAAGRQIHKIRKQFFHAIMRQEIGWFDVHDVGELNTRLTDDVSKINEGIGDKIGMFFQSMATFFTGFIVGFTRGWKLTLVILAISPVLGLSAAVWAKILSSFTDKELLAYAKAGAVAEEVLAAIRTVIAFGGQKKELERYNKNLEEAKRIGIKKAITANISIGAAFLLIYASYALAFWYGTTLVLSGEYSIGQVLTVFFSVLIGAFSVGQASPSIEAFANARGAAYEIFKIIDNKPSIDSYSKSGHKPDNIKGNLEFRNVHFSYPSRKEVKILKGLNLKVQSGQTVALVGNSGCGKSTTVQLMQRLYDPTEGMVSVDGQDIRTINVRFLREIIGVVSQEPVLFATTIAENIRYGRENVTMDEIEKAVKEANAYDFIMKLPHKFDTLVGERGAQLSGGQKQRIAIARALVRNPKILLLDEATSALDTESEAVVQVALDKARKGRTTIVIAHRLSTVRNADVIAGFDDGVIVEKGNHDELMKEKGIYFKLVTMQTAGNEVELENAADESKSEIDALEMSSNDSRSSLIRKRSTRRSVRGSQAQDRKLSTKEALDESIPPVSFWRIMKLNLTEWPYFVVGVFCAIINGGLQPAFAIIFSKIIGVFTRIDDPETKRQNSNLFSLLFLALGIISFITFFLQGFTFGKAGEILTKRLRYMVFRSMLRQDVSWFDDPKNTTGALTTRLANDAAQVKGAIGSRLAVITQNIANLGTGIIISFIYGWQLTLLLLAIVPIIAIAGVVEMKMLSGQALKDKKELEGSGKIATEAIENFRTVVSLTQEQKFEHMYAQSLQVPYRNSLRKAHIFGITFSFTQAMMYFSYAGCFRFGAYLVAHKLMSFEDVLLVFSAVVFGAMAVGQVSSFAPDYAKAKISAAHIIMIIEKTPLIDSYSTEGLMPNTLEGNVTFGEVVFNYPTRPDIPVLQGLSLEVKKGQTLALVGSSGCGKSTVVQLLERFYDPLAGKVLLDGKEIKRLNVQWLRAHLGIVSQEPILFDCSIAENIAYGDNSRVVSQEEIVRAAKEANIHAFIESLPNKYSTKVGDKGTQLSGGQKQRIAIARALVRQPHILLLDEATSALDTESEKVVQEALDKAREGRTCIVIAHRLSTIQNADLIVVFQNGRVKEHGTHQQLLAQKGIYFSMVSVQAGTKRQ
Structure (SMILES),Ratio IC50 [1],Retention_time [2] [min],pIC50 [3],inhibition at 10 µM [6] [%],CHI [10],further results
O=C(/C=C/C=C/c1ccc2c(c1)OCO2)N1CCCCC1 [PIPERINE],10,10.61,5.98,< 50,73.45,Activity [4]: Not Active; Activity [5]: Non-Toxic; inhibition (INH) [7]: Not Active; Activity [8]: Non-Toxic; chromatographic logD at 250 µM [9]: 2.39
NC(=O)N1c2ccccc2C=Cc2ccccc21 [CARBAMAZEPINE],,9.3,,,58.45,
CCCCC(=O)c1ccccc1 [VALEROPHENONE],,12.04,,,97.67,
O=C(/C=C/C=C/c1ccc2c(c1)OCO2)Oc1ccccc1,> 64,,6.81,,,"viability at 24 h, 50 µM [11]: 79.7%; viability at 24 h, 50 µM [12]: 59.4%; solubility [13]: Insoluble"
N#C/C(=C\C=C\c1ccc2c(c1)OCO2)C(=O)OCc1ccccc1,> 211,12.11,7.32,< 50,96.73,"inhibition (INH) [14]: Active; viability at 24 h, up to 50 µM [15]: > 85%; viability at 24 h [16]: > 85%; pKi [17]: 7.36; viability at 24 h, up to 50 µM [18]: > 85%; Stability [19]: Stable; inhibition (INH) [7]: Active; viability at 24 h [20]: > 85%; chromatographic logD at 250 µM [9]: 3.61; inhibition (INH) [21]: Active; inhibition (INH) [22]: Active"
Cn1c(=O)c2c(ncn2C)n(C)c1=O [CAFFEINE],,7.56,,,24.12,
CC(=O)Nc1ccc(O)cc1 [ACETAMINOPHEN],,7.45,,,20.59,
N#C/C(=C\C=C\c1ccc2c(c1)OCO2)C(=O)NCCc1ccccc1,,,,< 50,,inhibition at 10 µM [23]: < 50%
CCCC(=O)c1ccccc1 [BUTYROPHENONE],,11.32,,,88.49,
N#C/C(=C\C=C\c1ccc2c(c1)OCO2)C(=O)Nc1ccccc1,,,,< 50,,inhibition at 10 µM [23]: < 50%
N#C/C(=C\C=C\c1ccc2c(c1)OCO2)C(=O)O,,,,< 50,,inhibition at 10 µM [23]: < 50%
O=C(/C=C/C=C/c1ccc2c(c1)OCO2)Nc1ccccc1,,,,< 50,,inhibition at 10 µM [23]: < 50%
N#C/C(=C\C=C\c1ccc2c(c1)OCO2)C(=O)OCCc1ccccc1,> 101,12.37,7.00,< 50,100.75,"viability at 24 h, up to 50 µM [15]: > 85%; viability at 24 h [16]: > 85%; viability at 24 h, up to 50 µM [18]: > 85%; inhibition (INH) [7]: Active; viability at 24 h [20]: > 85%; chromatographic logD at 250 µM [9]: 3.82"
COc1cc2c(c(OC)c1OC)-c1ccc(OC)c(=O)cc1[C@@H](NC(C)=O)CC2 [COLCHICINE],,8.35,,,44.32,
O=C(O)/C=C/C=C/c1ccc2c(c1)OCO2 [PIPERIC ACID],,,,< 50,,inhibition at 10 µM [23]: < 50%
N#C/C(=C\C=C\c1ccc2c(c1)OCO2)C(=O)NCc1ccccc1,> 21,,6.33,< 50,,
CCCCCCC(=O)c1ccccc1,,13.67,,,111.8,
N#C/C(=C\C=C\c1ccc2c(c1)OCO2)C(=O)N1CCCCC1,> 70,,6.84,< 50,,"inhibition (INH) [14]: Active; Activity [24]: 111.1%; viability at 24 h, up to 50 µM [15]: > 85%; viability at 24 h [16]: > 85%; Activity [4]: Not Active; pKi [17]: 7.69; viability at 24 h, up to 50 µM [18]: > 85%; viability at 24 h [20]: > 85%; Activity [25]: inactive; inhibition (INH) [21]: Active"
O=C(/C=C/C=C/c1ccc2c(c1)OCO2)OCc1ccccc1,25,12.46,6.78,,102.14,"inhibition (INH) [14]: Active; viability at 24 h, up to 50 µM [15]: > 85%; viability at 24 h [16]: > 85%; Activity [4]: Not Active; pKi [17]: 7.12; viability at 24 h, up to 50 µM [18]: > 85%; pIC50 [26]: 5.37; inhibition (INH) [7]: Not Active; viability at 24 h [20]: > 85%; chromatographic logD at 250 µM [9]: 3.9; inhibition (INH) [21]: Active"
N#C/C(=C\C=C\c1ccc2c(c1)OCO2)C(=O)Oc1ccccc1,> 47,,6.67,< 50,,
C[C@H](NCc1ccc(OCc2cccc(F)c2)cc1)C(N)=O [SAFINAMIDE],,,,,,inhibition (INH) [22]: Active
O=C(/C=C/C=C/c1ccc2c(c1)OCO2)NCc1ccccc1,,,,< 50,,inhibition at 10 µM [23]: < 50%
c1ccc2[nH]cnc2c1 [BENZIMIDAZOLE],,8,,,30.71,
Cn1c(=O)c2[nH]cnc2n(C)c1=O.O [THEOPHYLLINE],,7.31,,,18.19,
c1ccc2[nH]ccc2c1 [INDOLE],,10.27,,,69.15,
O=C(/C=C/C=C/c1ccc2c(c1)OCO2)OCCc1ccccc1,> 22,,6.35,< 50,,
O=C(/C=C/C=C/c1ccc2c(c1)OCO2)NCCc1ccccc1,,,,< 50,,inhibition at 10 µM [23]: < 50%
CCC(=O)c1ccccc1 [PROPIOPHENONE],,10.63,,,78.41,
